Test results as given in US20140004207A1, “Analgesic Apatitic Calcium-Phosphate Cement” (priority 2008, published 2014).

Experiments:
[1] = Stability of bupivacaine within the composition on storage; format: physicochemical; conditions: 4° C.
Description: The same method was applied to determine the lidocaine release. A first assay confirmed that the bupivacaine within the composition is stable for 3 months at 4° C.

[2] = HPLC and MS analysis of bupivacaine after association and release from CDA; format: physicochemical; conditions: cold isostatic compression; three days in water at 37° C.; HPLC and MS vs native molecule
Description: Bupivacaine-loaded CDA (400 mg) was stirred in 5 ml of water for three days at 37° C. The aqueous solution was passed through a microfiltration membrane with a pore size of 0.22 μm. Several aliquots of this solution were diluted to working concentration with HPLC. An aliquot of this solution (1 ml) was extracted with 1 ml of dichloromethane (HiPerSolv for HPLC, VWR-BDH). The organic phase was dried over Na2SO4 for further MS studies. HPLC HP 1100 (C18 column, Inertsil 5 ODS-3), flow: 0.5 ml mn^−1, solvent: acetonitrile/water [80/20], injection volume: 10 μl, detection: 230 nm). The liquid phase was prepared by mixing Acetonitrile for HPLC Gradient Grade (VWR-BDH-Prolabo) with pure water. A thermo Electron Corporation DSQ II bench-top quadruple mass spectrometer fitted with a direct sample probe or GC, with chemical ionization (CI), was used for data acquisition and processing.

[3] = intrabone injection, percutaneous vertebroplastics; cited from earlier work
[4] = continuous intravenous administration; cited from earlier work

Row | Structure (SMILES) | stability of bupivacaine within the composition [1] | integrity of bupivacaine after association with CDA granules and release [2] | effectiveness versus antalgic protocol comprising nalbuphine and paracetamol [3] | serum levels of lidocaine [3] | postoperative morphine intake [4]
1 | CCCCN1CCCCC1C(=O)Nc1c(C)cccc1C (centres unmarked) [bupivacaine] | 3 months | remained unchanged |  |  | 
2 | CCN(CC)CC(=O)Nc1c(C)cccc1C [lidocaine] |  |  | comparable effectiveness | much below the toxic level | reduction of the postoperative morphine intake
